Source: paper PMC12670405, “Second-Generation AURKA-Targeting PROTACs: Structural Optimization toward in Vivo Degradation in Neuroblastoma” (Journal of Medicinal Chemistry, 2025)
Like-named read-outs stand apart in the source and are kept apart here.

Key:
Plasma stability assay = format: in vitro ADME, CD-1 mouse; conditions: for half-life at 1 μM: read-out: plasma t1/2
Method: (§1) Plasma and metabolic stability tests were performed by Eurofins Discovery. For the plasma stability assay, test compounds were incubated in CD-1 mouse plasma for 0, 0.5, 1, 1.5, and 2 h at 37 °C at a concentration of 1 μM. For the metabolic stability assay, test compounds were incubated at 37 °C in either (1) CD-1 mouse liver microsomes (MLM) (0.1 mg/mL) at a concentration of 0.1 μM for 0, 15, 30, 45, and 60 min or (2) CD-1 mouse hepatocytes (MH) (0.7 million viable cells/mL) at a concentration of 1 μM for 0, 0.5, 1, 1.5, and 2 h. At the respective time points, acetonitrile was added to the incubation mixture followed by centrifugation. Samples were analyzed by HPLC-MS/MS and peak areas were recorded for each analyte. Compound stability, expressed as the percentage of parent compound remaining, was calculated by comparing the peak area of the compound at each time point relative to that of the 0h time point. Percentage compound remaining is plotted as a function of time as a logarithmic curve. Half-life (t 1/2) is estimated from the slope of the initial linear range of the curve, assuming first-order kinetics. […] Both plasma and metabolic assay experiments were performed once with 2 replicate samples each.

CRBN = biological target: T1, CRBN (Homo sapiens, UniProt Q96SW2); assay: CRBN binding assay (E3scan, Eurofins Discovery)
T1 construct: purchased Eurofins Discovery
T1 sequence (Q96SW2 whole entry): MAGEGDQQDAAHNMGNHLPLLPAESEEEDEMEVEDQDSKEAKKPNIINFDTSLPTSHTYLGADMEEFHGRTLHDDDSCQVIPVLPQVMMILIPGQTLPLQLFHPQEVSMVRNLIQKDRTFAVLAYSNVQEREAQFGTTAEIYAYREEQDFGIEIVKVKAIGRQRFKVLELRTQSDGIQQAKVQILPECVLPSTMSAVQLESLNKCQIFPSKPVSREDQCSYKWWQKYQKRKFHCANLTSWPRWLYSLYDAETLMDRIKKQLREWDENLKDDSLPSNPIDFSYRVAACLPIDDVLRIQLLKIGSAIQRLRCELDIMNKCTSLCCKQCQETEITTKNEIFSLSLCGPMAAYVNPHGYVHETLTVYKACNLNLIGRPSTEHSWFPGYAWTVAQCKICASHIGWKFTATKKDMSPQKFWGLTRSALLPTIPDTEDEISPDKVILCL
Method: (§2) AURKA, AURKB and CRBN binding assays were performed by Eurofins Discovery using the KdELECT Kinase Assay Panel (AURKA and AURKB), or the E3scan Ligand Binding Assay Technology (CRBN). More information can be found on the Eurofins Discovery Web site.
(§3) Graphs were generated using GraphPad Prism Software (version 10.1.2) or RStudio (R-4.3.2). All dose–response curves were computed on GraphPad Prism using the Variable Slope (four parameters) equation. Absolute half-maximal degradation (DC50), growth inhibitory (GI50) and enzymatic inhibitory (IC50) concentrations, as well as inhibition constants (Ki) were derived from dose–response curves via interpolation. Statistical tests were performed on GraphPad Prism and detailed in the figure legends. Unless otherwise stated, “n” in the figure legends indicates the number of independent experiments conducted at different times.

NGP = assay: IncuCyte live-cell imaging, antiproliferative effect; format: cell-based; conditions: Homo sapiens, 72 h
Source text: (§4) Human neuroblastoma cell lines NGP, IMR-32, SJNB-8, SK-N-BE(2)-C, SJNB-1, SK-N-SH and SK-N-AS, as well as benign immortalized cell lines RPE and HEK293T were either bought commercially or obtained through research laboratories. […] Screening for mycoplasma contamination occurred routinely on the cells. Human neuroblastoma cell lines SH-SY5Y_shABCB1 & SH-SY5Y_shNTC were generated by transduction with pLKO.1-ABCB1_TRCN0000059683 shRNA (Sigma MISSION SHCLND) or pLKO.1-puro NT shRNA (Sigma MISSION SHC002) vectors respectively (Supplementary Table S6), packaged using Lenti-X293T (Clontech). Transduced cells were selected with 2 μg/mL puromycin. These cells were cultured in DMEM 4.5 g/L D-Glucose, L-Glutamine and 110 mg/L Sodium Pyruvate (Gibco, #11995065) supplemented with 10% fetal bovine serum, 1× Antibiotic-Antimycotic solution (Sigma-Aldrich, #A5955) and 1× MEM nonessential amino acids (Sigma-Aldrich, #M7145). Incubation of all cells occurred at 37 °C and 5% CO2.
(§5) Neuroblastoma cells were seeded in 384-well plates at different densities ranging from 1200 to 5000 cells/well and allowed to adhere overnight. RPE and HEK293T were seeded at 200 and 600 cells/well, respectively. Compound treatment was performed using the D300e Digital Dispenser (Tecan) in duplicate or triplicate and cell confluency was monitored over time using the IncuCyte Live-cell imaging system (Sartorius). […] Mean normalized confluences were calculated from 3 individual experiments.
(§6) All dose–response curves were computed on GraphPad Prism using the Variable Slope (four parameters) equation. Absolute half-maximal degradation (DC50), growth inhibitory (GI50) and enzymatic inhibitory (IC50) concentrations, as well as inhibition constants (Ki) were derived from dose–response curves via interpolation. Statistical tests were performed on GraphPad Prism and detailed in the figure legends. Unless otherwise stated, “n” in the figure legends indicates the number of independent experiments conducted at different times.

[1] = Metabolic stability in mouse hepatocytes (MH); format: in vitro ADME, CD-1 mouse; conditions: CD-1
Method: as §1

AURKA [2] = biological target: T2, AURKA (Homo sapiens, UniProt O14965); assay: AURKA degradation, Simple Western; format: cell-based; design: Representative Western blot showing levels of endogenous proteins MDR1, MYCN, AURKA, and CRBN in untreated cell lines; endogenous in cells; host or cells: NGP, IMR-32, SJNB-8, SK-N-BE(2)-C, SK-N-SH, SK-N-AS, SJNB-1, RPE, HEK293T; conditions: for pDC50: AURKA degradation; for DC50: read-out: AURKA DC50; for AURKA degradation (in words): IMR-32, 24h treatment;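 for AURKA Degradation 24h @1000nM: measured in NGP neuroblastoma cells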;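 for AURKA Degradation 24h @100nM: measured in NGP neuroblastoma cells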
T2 sequence (O14965 1-403): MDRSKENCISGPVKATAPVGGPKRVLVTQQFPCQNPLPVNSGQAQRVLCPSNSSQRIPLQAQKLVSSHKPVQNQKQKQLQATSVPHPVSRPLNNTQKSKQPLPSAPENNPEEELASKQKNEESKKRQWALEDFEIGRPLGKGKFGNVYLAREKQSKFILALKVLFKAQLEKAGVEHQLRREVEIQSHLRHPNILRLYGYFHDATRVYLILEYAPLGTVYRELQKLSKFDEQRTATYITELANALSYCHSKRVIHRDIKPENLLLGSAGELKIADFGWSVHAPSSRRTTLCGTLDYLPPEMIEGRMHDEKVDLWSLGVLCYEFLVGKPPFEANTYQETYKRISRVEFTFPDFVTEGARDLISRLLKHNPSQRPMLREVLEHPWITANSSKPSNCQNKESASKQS
Method: (§7) Cells were seeded in T-25 flasks at different densities ranging from 1 to 2 million cells per flask and allowed to adhere for 1–2 days. In experiments involving compound treatment, this was done by medium replacement containing the compound(s) of interest in their corresponding concentrations. In competition binding experiments, cells were first pretreated with an excess of MK-5108, thalidomide or MG-132 for 1 h by shaking gently at room temperature prior to addition of SK4454 or SK5527. All samples were normalized to contain the same percentage of DMSO as the negative DMSO controls. Cells were harvested on ice at their respective time points by scraping, washed with ice-cold PBS to collect remaining cells, and centrifuged (2500 rpm, 4 °C). A second washing and centrifugation step was performed prior to collection of the final cell pellets which were then snap-frozen in liquid nitrogen and kept frozen at −80 °C until further processing. Lysis of cell pellets occurred in cold RIPA buffer (0.5% w/v Sodium Deoxycholate, 150 mM NaCl, 50 mM TrisHCl pH 7.5, 0.1% w/v SDS, 1% w/v NP-40) supplemented with protease and phosphatase inhibitors (Roche, #11836145001, #04906845001) by rotating gently at 4 °C for 1h, followed by a centrifugation step for 10 min (10,000 rpm, 4 °C). The supernatant was collected and concentrations of the obtained protein lysates were measured using the Pierce BCA Protein Assay Kit (Thermo Fisher Scientific, #23227).
(§8) Simple Western analyses were performed with the Wes instrument (Bio-Techne) using the 12–230 kDa Wes Separation module and the EZ standard pack reagent 1 (Biotechne, #SM-W001, #PS-ST01EZ-8) following the manufacturer’s protocol. Protein lysates were loaded at 0.8 μg/μL under denaturing conditions (0.2 μg/μL for MYCN detection). Chemiluminescence peaks were generated by the Compass Software (Bio-Techne) and the area under the peaks calculated using the Gaussian fit method. Per lane, quantified data were always normalized to that of the loading control (Vinculin) prior to calculating fold changes relative to the negative DMSO control. Mean fold changes are calculated from 3 individual experiments. A list of the primary and secondary antibodies used can be found in the Supporting Information (Supplementary Table S7).
as §3

[3] = Metabolic stability in mouse liver microsomes (MLM); format: in vitro ADME, CD-1 mouse; conditions: CD-1
Method: as §1

MYCN = MYCN protein levels, Simple Western; format: cell-based, human; conditions: IMR-32
Method: as §7, §8, §3

IMR-32 = assay: IncuCyte live-cell imaging, antiproliferative effect; format: cell-based; conditions: Homo sapiens, IMR-32, 72 h; read-out: GI50
Source text: as §4, §5, §6

AURKA [4] = biological target: T2, AURKA; assay: AURKA binding assay (KINOMEscan / KdELECT, Eurofins Discovery); design: purchased Eurofins Discovery
Method: as §2, §3

Compound	half-life at 1 μM (Plasma stability assay; CD-1 mouse plasma, 1 μM, 37 °C) [h]	plasma t1/2 (Plasma stability assay; plasma) [h]	Ki (CRBN) [nM]	hepatocyte CLint at 1 μM [1] [µL/min/1e6 cells]	AURKA Degradation 24h @100nM (AURKA [2])	AURKA Degradation 24h @1000nM (AURKA [2])	pDC50 (AURKA [2])	Dmax (AURKA [2]; NGP, 24 h treatment) [%]	DC50 (AURKA [2]; NGP, 24 h treatment) [nM]	DC50 (AURKA [2]) [nM]	microsomal CLint at 0.1 μM [3] [µL/min/mg]	CRBN binding (in words) (CRBN)	AURKA degradation (in words) (AURKA [2])	AURKA binding (in words) (AURKA [4])	half-life at 1 μM (Plasma stability assay; CD-1, mouse, plasma) [h]	GI50 (NGP; read-out: GI50 72h, 72h) [nM]	GI50 (NGP; read-out: pGI50 (converted)) [nM]	MYCN destabilization (in words) (MYCN)	GI50 (IMR-32) [nM]	AURKA degradation activity (in words) (AURKA [2]; NGP, 24 h treatment)
Cc1cc(Nc2ccc(F)c(CC3(C(=O)N4CCC(F)(CN5CCN(c6ccc(N7CCC(=O)N(C)C7=O)cn6)CC5)CC4)CCN(Cc4cccc(Cl)c4F)CC3)n2)n[nH]1 [SK5527-CRBi]	–	–	–	–	–	–	–	–	–	–	–	inability to bind	failed to degrade AURKA	–	–	–	–	failed to destabilize MYCN	~500	–
Cc1cc(N(C)c2ccc(F)c(CC3(C(=O)N4CCC(F)(CN5CCN(c6ccc(N7CCC(=O)NC7=O)cn6)CC5)CC4)CCN(Cc4cccc(Cl)c4F)CC3)n2)n[nH]1 [SK5527-AURi]	–	–	–	–	–	–	–	–	–	–	–	–	failed to degrade AURKA	inability to bind	–	–	–	failed to destabilize MYCN	~9000	–
Cc1cc(Nc2ccc(F)c(CC3(C(=O)N4CCC(F)(CN5CCC(c6ccc(N7CCC(=O)NC7=O)cn6)CC5)CC4)CCN(Cc4cccc(Cl)c4F)CC3)n2)n[nH]1 [PROTAC 37]	–	–	–	4.5	84	86	–	–	–	–	617	–	–	–	> 2	45	44.7	–	–	–

Further lines, with some results ahead:

half-life at 1 μM (Plasma stability assay; CD-1 mouse plasma, 1 μM, 37 °C) [h]	plasma t1/2 (Plasma stability assay; plasma) [h]	Ki (CRBN) [nM]	hepatocyte CLint at 1 μM [1] [µL/min/1e6 cells]	AURKA Degradation 24h @100nM (AURKA [2])	AURKA Degradation 24h @1000nM (AURKA [2])	pDC50 (AURKA [2])	Dmax (AURKA [2]; NGP, 24 h treatment) [%]	DC50 (AURKA [2]; NGP, 24 h treatment) [nM]	DC50 (AURKA [2]) [nM]	microsomal CLint at 0.1 μM [3] [µL/min/mg]	CRBN binding (in words) (CRBN)	AURKA degradation (in words) (AURKA [2])	AURKA binding (in words) (AURKA [4])	half-life at 1 μM (Plasma stability assay; CD-1, mouse, plasma) [h]	Compound	GI50 (NGP; read-out: GI50 72h, 72h) [nM]	GI50 (NGP; read-out: pGI50 (converted)) [nM]	MYCN destabilization (in words) (MYCN)	GI50 (IMR-32) [nM]	AURKA degradation activity (in words) (AURKA [2]; NGP, 24 h treatment)
> 2	> 2	3180	< 4.1	90	90	8,76	94	2	1.7	738	–	–	–	–	O=C1CCC(Nc2ccc(N3CCN(C4CN(C(=O)[C@]5(Cc6cccc(Nc7nccs7)n6)CC[C@@H](Oc6cccc(Cl)c6F)CC5)C4)CC3)nc2)C(=O)N1 (stereo partly drawn) [PROTAC 20]	19	19.1	–	–	–
> 2	> 2	455	< 4.1	78	82	7,97	85	–	10.8	186	–	–	–	–	O=C1CCN(Cc2ccc(C3CCN(CC4CCN(C(=O)[C@]5(Cc6cccc(Nc7nccs7)n6)CC[C@@H](Oc6cccc(Cl)c6F)CC5)CC4)CC3)nc2)C(=O)N1 [PROTAC 21]	46	45.7	–	–	slightly reduced degradation potency compared to SK2188
–	–	–	< 4.1	86	87	–	–	–	–	693	–	–	–	> 2	O=C1CCN(Cc2ccc(C3CCN(C4CN(C(=O)[C@]5(Cc6cccc(Nc7nccs7)n6)CC[C@@H](Oc6cccc(Cl)c6F)CC5)C4)CC3)nc2)C(=O)N1 [PROTAC 22]	46	46.8	–	–	–
